This passage reports Ki results from US20050107616A1, “Alpha-ketoamide derivatives as cathepsin k inhibitors” (priority 2001, published 2005).

A word on the Ki: it is a measure of affinity in units of concentration, obtained from inhibition or displacement.

Holding throughout (format): biochemical
For one test, the target named is T1, human cathepsin K (Homo sapiens, UniProt P43235).
T1 construct: The proform of cathepsin K was converted to mature cathepsin K by brief exposure to pH 4; made in house; host or cells: baculovirus; Trichoplusia ni High Five cells (virus raised in Sf-9)
T1 sequence (P43235 115-329): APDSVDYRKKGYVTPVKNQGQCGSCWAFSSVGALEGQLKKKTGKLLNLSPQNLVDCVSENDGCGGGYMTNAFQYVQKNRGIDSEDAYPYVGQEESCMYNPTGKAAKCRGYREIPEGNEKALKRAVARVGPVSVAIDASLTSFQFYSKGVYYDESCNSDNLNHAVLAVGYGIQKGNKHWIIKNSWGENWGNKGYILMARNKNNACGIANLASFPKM
Description: Cathepsin K inhibition assay, fluorogenic substrate Cbz-Phe-Arg-AMC, progress curve method. The following applies: human recombinant enzyme, pH 5.5, 30° C., 10 μM substrate, read-out: hCat K Ki. Put shortly:
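Recombinant human cathepsin K from insect cells, made mature by pH 4/L-cysteine activation, was assayed with 10 μM Cbz-Phe-Arg-AMC in 10% DMSO at 30° C. […]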

In a further test the target is human cathepsin B (Homo sapiens, UniProt P07858). Description: Cathepsin B inhibition assay, fluorogenic substrate Cbz-Phe-Arg-AMC. The following applies: Table 2; enzyme from human liver tissue, pH 5.5, 30° C., 10 μM substrate; read-out: hCat B Ki. As for the experimental part:
(§1) All assays for cathepsin K were carried out with human and rat recombinant enzyme. Assays for cathepsins S Et V were also carried out with human recombinant enzyme. Assays for human cathepsins B. H. and L were carried out with enzyme, purchased from Athens Research and Technology, Inc., prepared from human liver tissue. Standard assay conditions for the determination of kinetic constants used a fluorogenic peptide substrate, typically (5S,8S)-13-amino-5-benzyl-13-imino-3-methylene-N-(4methyl-2-oxo-2H-chromen-7-yl)-6-oxo-1-phenyl-2-oxa-4,7,12-triazatridecane-8-carboxamide (Cbz-Phe-Arg-AMC), and were determined in 100 mM sodium acetate at pH 5.5 containing 10 mM dithiothreitol and 120 mM sodium chloride. A stock substrate solution of Cbz-Phe-Arg-AMC was prepared at a concentration of 50 mM in dimethyl sulfoxide. This substrate was diluted into the assay for a final substrate concentration of 10 μM in the rat cathepsin K, human cathepsin K, and human cathepsin B assays; a final substrate concentration of 5 μM in the human cathepsin L assay; and a final substrate concentration of 2 μM in the human cathepsin V assay.
(§2) All assays contained 10% dimethyl sulfoxide. […] All assays were conducted at 30° C. Product fluorescence (excitation at 360 nm; emission at 440 nm, (except cathepsin H which used excitation at 340 nm; emission at 420 nm)) was monitored with a PerSeptive Biosystems Cytofluor II fluorescence plate reader. Product progress curves were generated over 2.3 h monitoring the formation of 7-amino-4-methylcoumarin product (or β-naphthalamide for cathepsin H).
(§3) Potential inhibitors were evaluated using the progress curve method. Assays were carried out in the presence of variable concentrations of test compound. Reactions were initiated by addition of buffered solutions of inhibitor and substrate to enzyme. Data analysis was conducted according to one of two procedures depending on the appearance of the progress curves in the presence of inhibitors. For those compounds whose progress curves were linear, the enzymatic activity (RATE) was plotted against the concentration of test compound, including inhibitor concentration of zero ([I]=0), and the IC50 determined from a fit of equation 1 to the data, RATE=Vmax/(1+([I]/IC50)) (1) where Vmax is the best fit estimate of the maximal enzymatic activity. Ki values were calculated from IC50 values using equation 2 assuming a competitive model. [formula]

Another test addresses human cathepsin L (Homo sapiens, UniProt P07711). Nature of the test: Cathepsin L inhibition assay, fluorogenic substrate Cbz-Phe-Arg-AMC. The following applies: Table 2; enzyme from human liver tissue, pH 5.5, 30° C., 5 μM substrate; read-out: hCat L Ki. As for the experimental part: as §1, §2, §3
In another test the target is human cathepsin V (Homo sapiens, UniProt O60911). Nature of the test: Cathepsin V inhibition assay, fluorogenic substrate Cbz-Phe-Arg-AMC. The following applies: Table 2; human recombinant enzyme, pH 5.5, 30° C., 2 μM substrate; read-out: hCat V Ki. As for the experimental part:
as §1, §2, §3

The structures appear in SMILES notation. Like-named read-outs stand apart in the source and are kept apart here.

Chain of human cathepsin V (O60911 114-334): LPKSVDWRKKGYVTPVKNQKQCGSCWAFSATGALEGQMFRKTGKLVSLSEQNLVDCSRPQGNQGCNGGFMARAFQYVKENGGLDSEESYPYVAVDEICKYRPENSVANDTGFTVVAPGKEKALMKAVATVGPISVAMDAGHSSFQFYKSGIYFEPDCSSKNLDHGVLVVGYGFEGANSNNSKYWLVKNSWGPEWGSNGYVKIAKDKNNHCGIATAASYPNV
Chain of human cathepsin L (P07711 114-288 limits assumed): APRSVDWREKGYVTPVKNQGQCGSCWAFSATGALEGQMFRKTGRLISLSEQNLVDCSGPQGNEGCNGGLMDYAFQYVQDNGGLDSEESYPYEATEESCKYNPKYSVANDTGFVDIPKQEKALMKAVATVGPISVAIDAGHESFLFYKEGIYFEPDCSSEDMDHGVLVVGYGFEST
Chain of human cathepsin L (P07711 292-333 limits assumed): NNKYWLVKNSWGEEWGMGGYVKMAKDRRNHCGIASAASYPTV

With `CCCC[C@H](NC(=O)O[C@H](Cc1nnc(-c2ccc(F)cc2)o1)C(C)(C)C)C(=O)C(=O)Nc1ccnn1C` (stereo in doubt) [Example 22, (1R)-1-{[5-(4-fluorophenyl)-1,3,4-oxadiazol-2-yl]methyl}-2,2-dimethylpropyl(1S)-1-[[(1-methyl-1H-pyrazol-5-yl)amino](oxo)acetyl]pentyl carbamate], the Ki lay within 1 to 100 nM at human cathepsin K (Table 1); 1 to 100 nM at human cathepsin K (Table 2); 100 to 10000 nM on human cathepsin B; 100 to 10000 nM at human cathepsin L; 100 to 10000 nM at human cathepsin V.

On to `CCCC[C@H](NC(=O)O[C@H](Cn1ccc(-c2ccc(C(F)(F)F)cc2)n1)C(C)(C)C)C(=O)C(=O)Nc1ccn[nH]1` [Example 1], for which the inhibitory constant (Ki) at human cathepsin K (Table 1) lay in the range of 0.01 to 1 nM; at human cathepsin K (Table 2), 0.01 to 1 nM; at human cathepsin B it was 1 to 100 nM; on human cathepsin L, 1 to 100 nM; on human cathepsin V, 0.01 to 1 nM.

As for `CCCC[C@H](NC(=O)O[C@H](Cn1cnc(-c2ccc(C(F)(F)F)cc2)c1)C(C)(C)C)C(=O)C(=O)Nc1ccn[nH]1` [Example 7, (1S)-2,2-dimethyl-1-({4-[4-(trifluoromethyl)phenyl]-1H-imidazol-1-yl}methyl)propyl(1S)-1-[oxo(1H-pyrazol-5-ylamino)acetyl]pentylcarbamate], the inhibition constant (Ki) on human cathepsin K (Table 1) is 0.01 to 1 nM; at human cathepsin K (Table 2), 0.01 to 1 nM; on human cathepsin B, 1 to 100 nM; at human cathepsin L it was 1 to 100 nM; on human cathepsin V it was 0.01 to 1 nM.

For `CCCC[C@H](NC(=O)O[C@H](Cn1cnc(-c2ccc(C(F)(F)F)cc2)c1)C(C)(C)C)C(=O)C(=O)Nc1ccnn1C1CCC1` [Example 35, (1S)-2,2-dimethyl-1-({4-[4-(trifluoromethyl)phenyl]-1H-imidazol-1-yl}methyl)propyl(1S)-1-[[(1-cyclobutyl-1H-pyrazol-5-yl)amino](oxo)acetyl]pentylcarbamate], the Ki lay within 1 to 100 nM on human cathepsin K (Table 1); 1 to 100 nM at human cathepsin K (Table 2); 100 to 10000 nM on human cathepsin B; 100 to 10000 nM at human cathepsin L; 1 to 100 nM on human cathepsin V.

Turning to `CCCC[C@H](NC(=O)O[C@H](Cn1cnc2cc(Cl)c(Cl)cc21)C(C)(C)C)C(=O)C(=O)Nc1ccn[nH]1` [Example 37, (1S)-1-[(5,6-dichloro-1H-benzimidazol-1-yl)methyl]-2,2-dimethylpropyl(1S)-1-[oxo(1H-pyrazol-5-ylamino)acetyl]pentylcarbamate], the Ki lay within 0.01 to 1 nM on human cathepsin K (Table 1); 0.01 to 1 nM on human cathepsin K (Table 2); 1 to 100 nM at human cathepsin B; 0.01 to 1 nM at human cathepsin L; 0.01 to 1 nM at human cathepsin V.

Turning to `CCCC[C@H](NC(=O)O[C@H](c1nnc(-c2ccc(C(F)(F)F)cc2)o1)C(C)(C)C)C(=O)C(=O)Nc1ccn[nH]1` [Example 38, (1S)-2,2-dimethyl-1-{5-[4-(trifluoromethyl)phenyl]-1,3,4-oxadiazol-2-yl}propyl(1S)-1-[oxo(1H-pyrazol-5-ylamino)acetyl]pentylcarbamate], the Ki at human cathepsin K (Table 1) lay in the range of 0.01 to 1 nM; at human cathepsin K (Table 2), 0.01 to 1 nM; on human cathepsin B it was 1 to 100 nM; on human cathepsin L it was 1 to 100 nM; at human cathepsin V it was 1 to 100 nM.

On to `CCCC[C@H](NC(=O)O[C@H](c1nnc(-c2ccc(C(F)(F)F)cc2)o1)C(C)(C)C)C(=O)C(=O)NN1CCOC1=O` [Example 39, (1S)-2,2-dimethyl-1-{5-[4-(trifluoromethyl)phenyl]-1,3,4-oxadiazol-2-yl}propyl(1S)-1-{oxo[(2-oxo-1,3-oxazolidin-3-yl)amino]acetyl}pentylcarbamate], for which the inhibition constant Ki at human cathepsin K (Table 1) was in the range of 0.01 to 1 nM; at human cathepsin K (Table 2), 0.01 to 1 nM; on human cathepsin B, 1 to 100 nM; at human cathepsin L, 1 to 100 nM; at human cathepsin V, 1 to 100 nM.
